Measured values published in patent US20090042783A1, “APO E ANALOGS AND METHODS FOR THEIR USE” (priority 2004, published 2009).
Marks after values point to notes of the source that are not given here.

Tests used:
[1] = tested on: mice infected with C. rodentium; experiment: C. rodentium colitis; type: in vivo; settings: for Inhibition of mortality vs water alone: 1% L-Arg in drinking water; for Colon wt (% Total Body wt) / Histology Score / Body wt (% Total Body wt): 10 days; for Body wt (% Total Body wt): 0.1% BEC or 2.5% DFMO
From the text: C. rodentium colitis: Of the two existing mouse models (Gobert A P et al., 2004; Cheng Y. et al., 2003), the C. rodentium model was selected because it produces a Th1-predominant mucosal inflammation that has histologic changes similar to human IBD (Higgins L M et al., 1999). In this model, mice are infected by oral gavage with C. rodentium (Gobert A P et al., 2004), a gram negative pathogenic bacterium that is the rodent equivalent of enteropathogenic E. coli that causes diarrhea in humans.
Since arginase I and iNOS were both abundantly expressed in the colitis tissues and L-Arg was completely metabolized, we investigated the effect of administration of 1% L-Arg in the drinking water. In wild type (WT) mice, C. rodentium colitis induced a high level of mortality that began on day 9 post-infection (FIG. 31A). In WT animals treated with L-Arg, mortality was inhibited by 42% and 62% compared to mice receiving water alone, after 12 and 14 days of infection, respectively (FIG. 31A). By Cox regression analysis, WT mice treated with L-Arg had only a 31% hazard of death compared with mice receiving water alone (p<0.0009). In iNOS^−/− mice, no deaths were observed, with or without L-Arg (FIG. 31A). […] Note that the weight loss of WT mice is underestimated, since only the weights of animals still alive could be included. […] There was an additive effect of iNOS deletion and L-Arg administration, with a 68% decrease in colon weight. Neither iNOS deletion nor L-Arg treatment affected colon weight in uninfected control mice. Importantly, these changes were closely paralleled by changes in colon histology (FIG. 32).
In uninfected control mice, BEC or DFMO had no effect (Table I). […] In fact, experiments had to be terminated early at 10 days post-infection, because of deaths and severe disease at this point.

mice with DSS colitis = experiment: Dextran sulfate sodium (DSS) colitis; type: in vivo, mouse
From the text: This model was selected because it has become commonly accepted as a mouse model of colitis and is quite practical to employ, since it simply involves adding DSS to the drinking water (Moteau O. et al., 2000, Williams K L et al. 2001, Andres P G et al., 2000, Mahler M. et al., 1998, Tesser T G et al., 1998).

[2] = tested on: C57BL/6J mice with MOG-induced EAE; experiment: MOG-induced experimental autoimmune encephalomyelitis (EAE)
Experimental: EAE was induced in mice following the method of Feinstein et al. (Feinstein, Galea, et al. 2002) 1) two s.c. injections, one on each flank of the hind legs with 300 μg MOG35-55 peptide in 0.1 ml PBS emulsified in an equal volume of CFA containing 5 mg/ml of Mycobacterium tuberculosis H37RA (Difco, St. Louis, Mo.) were given on Day 0.2) Pertussis toxin (200 ng per mouse in 0.1 ml PBS) was given i.p. immediately and 48 h after first MOG injection. 3) a booster immunization with an identical emulsion, route of administration and location was given on Day 7.
Following the encephalitogenic challenge, mice were monitored daily and neurological impairment was evaluated by clinical score (C.S.) as follows: 0, no clinical signs of EAE; 1, limp tail; 2, flaccid tail and abnormal gait (ataxia and/or paresis of hind limbs); 3, severe hind limb paresis; 4, complete paralysis with hind body; and 5, moribund or death.
Mice were anesthetized, bled, and perfused with 25 ml PBS and 25 ml 4% paraformaldehyde in buffered PBS. Brains and spinal cords were dissected out from 3 mice with a clinical score of 0 and another 3 mice with a clinical score of 4 on day 30 post-immunization. Tissues were post-fixed in 4% paraformaldehyde for another 24 h and then stored in 1×PBS with 0.1% sodium azide. Fixed tissues were embedded in paraffin and 5 μm thick sections were cut from brain, the brain stem and three different levels of spinal cord (cervical, thoracic and lumbar). Sections were stained with hematoxylin/eosin for evidence of inflammation and Luxol fast blue (for demyelination). The severity of inflammation was evaluated using the following criteria: 0, no inflammation; 1, cellular infiltrates only in the perivascular areas and meninges; 2, mild cellular infiltrates only in parenchyma (1-10/section); 3, moderate cellular infiltrates in parenchyma (11-100/section); 4, marked cellular infiltrates in parenchyma (>100 section).
In total, 10 doses of peptides were given.

BV2 microglial cells = tested on: BV2 microglial cells
Experimental: For suppression of inflammation profiling, each peptide analog was tested at a final concentration of 0.1, […], 1, 3, 5, 10 and 25 μM in an LPS induced BV2 microglial cell release of NO and/or TNFα. […] The modification was a biotin label on the apoE peptide (biotin-[…]-amide) which allows detection with ^125I-streptavidin (ISA, Amersham).
In overview, BV-2 cells are plated in 96 well plates in complete media and then the media is replaced the next day with serum free media or reduced serum (1%) media. […] Each concentration of peptide (standard initial concentrations are 0.1, 0.5, 1, 3, 10 and 25 μM) is added to at least 6 wells of cells (e.g. 6 wells get 0.1 μM peptide, 6 wells get 0.5 μM peptide, etc.) and data are averaged from all 6 wells. […] (2001). Cell viability is also measured with an MTT assay (Laskowitz et al. 2001).

peritoneal macrophages = experiment: Peritoneal macrophage production of NO, TNFα and IL-6 induced by MOG or LPS/IFN-γ; type: cell-based, mouse
Experimental: For this purpose, three mice with clinical scores of 0 and three with clinical scores of 4 at 30 dpi (day post-immunization) were used for preparation of peritoneal macrophage cultures. Macrophages were collected after peritoneal lavage with 3 ml heparin (10 U/ml)-containing PBS and then seeded to 96-well microplates at a density of 1×10^5 cells/well in Dulbecco's MEM containing 10% fetal bovine serum, 2 mM L-glutamine serum, 1% HEPES and 100 U/ml penicillin and 100 μg/ml streptomycin, 37° C. in a humidified incubator with 5% CO2. 24 h later, the serum-containing medium was removed and cells were washed once with serum-free medium. To examine the differentiated response of macrophage to immune stimulators, macrophages obtained from mice with clinical scores of 0 or 4 were exposed to serial concentrations of IFN-γ/LPS or MOG35-55 peptide. […] Media were collected at 45 h or 72 h, and analyzed by ELISA for […] and IL-6 or for nitric oxide (NO) as detailed below.
As the stable end product of nitric oxide release, nitrite levels in conditioned media were determined by injecting 50 μl media sample into a Sievers 280 NOA analyzer (Boulder, Colo., USA). Total protein (μg/well) was measured using the BCA method (Pierce, Rockford, Ill., USA) according to manufacturer's instructions with BSA as standard. BCA values were measured using a Molecular Devices Thermomax Microplate Reader (Menlo Park, Calif., USA) at OD562. Nitric oxide levels ere expressed as μM NO2—/mg protein.
For cytokine assays, supernatants were collected 45 h after […]/LPS or MOG treatments and quantitative ELISAs using selected pairs of monoclonal antibodies (as recommended by the manufacturer Biosource) were performed to quantify the cytokines, TNF-α and IL-6. For TNF-α ELISA, 96-well ELISA plates were pre-coated with rabbit anti-mouse polyclonal to TNF-α as capture antibodies for 18 h at 2-8° C. and then blocked for 2 h at room temperature. The wells were incubated with samples or mouse TNF-α standards. Following incubation for 2 h at room temperature, the wells were washed, after which hamster anti-mouse TNF-α biotinylated secondary antibody and horseradish peroxidase conjugate were added. Tetramethylbenzidine (TMB) solution was then added, and peroxidase-catalyzed color change was stopped by acidification with 2 NH2SO4. The plates were scanned at wavelength 450 nm and the absorbance were measured. The results are expressed as the mean concentration (pg/ml) ±SEM.
For IL-6 ELISA, rat anti-mouse monoclonal to IL-6 was used as capture antibody, and biotinylated rat anti-mouse monoclonal to IL-6 as detection antibody. The rest of procedure is identical to that of TNF-α ELISA.

For `N=C(N)NCCC[C@H](N)C(=O)O` [L-Arg], the “Inhibition of mortality vs water alone” value ([1]; WT mice, 12 days of infection) was 42%, the “Inhibition of mortality vs water alone” value ([1]; WT mice, 14 days of infection) was 62% and the “Hazard of death compared with water alone (Cox regression)” value ([1]; WT mice, p<0.0009) was 31%. The “Decrease in colon weight” value ([1]; infected WT mice) was 28%, the Weight loss ([1]; infected WT mice) was “reduced weight loss” and the “Increase in colonic ODC activity” value ([1]; infected WT mice treated with L-Arg) was 40 fold. For the same compound, the “Increase in colonic polyamines” value ([1]; infected WT mice with L-Arg treatment) was 2.7±0.2 fold, the “Decrease in colon weight” value ([1]; infected iNOS−/− mice given L-Arg) was 68% and the “IFN-γ, TNF-α and IL-1 mRNA in colitis tissues” value ([1]; real-time PCR) was “significant attenuation of these increases”. For the same compound, the “Clinical parameters of DSS colitis” value (mice with DSS colitis; L-Arg (1%)) was “reduction in clinical parameters of colitis” and the “Colonic polyamine levels in DSS colitis” value (mice with DSS colitis; mouse, in vivo) was “enhanced polyamine levels”.

“LLRKRLKRLHSALRVRL (Reverse of COG133) [Reverse Pep., ApoE reverse peptide, scrambled control of COG133]” was tested, and the “Clinical severity of EAE” value ([2]; 1 mg/kg i.v., 10 doses) was “did not improve the behavioral symptoms of EAE”, the Incidence ([2]; 1 mg/kg i.v., 10 doses) was 10/10 and the Mortality ([2]; 1 mg/kg i.v., 10 doses) was 3/10. The Day of onset ([2]; 1 mg/kg i.v., 10 doses Day 6-22, mean ± SEM) was 17.3 ± 1.12, the Mortality ([2]; 1 mg/kg i.v., 10 doses, listed as reverse peptide) was 5 of 15 and the Mean maximum score ([2]; clinical score 0-5, mean ± SEM) was 3.9 ± 0.31. For the same compound, the “Suppression of NO and/or TNFα release from LPS treated BV2 cells” value (BV2 microglial cells) was “lacked bioactivity”, the “LPS/IFN-γ-induced production of NO, TNFα and IL-6” value (peritoneal macrophages; COG133 at 1 μM rather than at 5 μM, P<0.05) was “failed to inhibit this production” and the “MOG-induced production of NO and TNFα” value (peritoneal macrophages; macrophages from C.S. 4 mice, 72 h after MOG 20 μg/ml) was “did not display such an inhibitory effect”.

In the case of `N[C@@H](CSCCB(O)O)C(=O)O` [BEC, S-(2-boronoethyl)-L-cysteine], the “Colon wt (% Total Body wt)” value ([1]; WT mice, C. rodentium) is reported as 1.25 ± 0.07^b,d % Total Body wt, the “Histology Score” value ([1]; WT mice, C. rodentium) is reported as 9.25 ± 0.69^b,d and the “Body wt (% Total Body wt)” value ([1]; WT mice, C. rodentium) is reported as 82.4 ± 5.2^a,c % Total Body wt. The “Colon wt (% Total Body wt)” value ([1]; WT mice, PBS (uninfected)) was 0.42 ± 0.04 % Total Body wt, the “Histology Score” value ([1]; WT mice, PBS (uninfected)) was 0.67 ± 0.17 and the “Body wt (% Total Body wt)” value ([1]; WT mice, PBS (uninfected)) was 110.1 ± 2.2 % Total Body wt. For the same compound, the “Colon histologic injury score” value ([1]; iNOS−/− C. rodentium-infected mice + BEC, n=8, p<0.01) was 6.44±0.98, the Colon weight ([1]; iNOS−/− C. rodentium-infected mice + BEC, p<0.05) was 0.92±0.20 % of total body weight and the “Effect in uninfected control mice” value ([1]; in the drinking water) was “had no effect”. The “Survival of C. rodentium-infected mice” value ([1]; in the drinking water) was “significant loss of survival” and the “Clinical and histologic parameters of DSS colitis” value (mice with DSS colitis; WT and iNOS−/− mice, data not shown) was “exacerbation of clinical and histologic parameters of colitis”.
